The values that follow come from BindingDB's records for doi:10.1021/jm800138h (Gsk, 2008).

The structures appear in SMILES notation.

Common to all, as to test: Enzyme Inhibition Assay
One experiment deals with Beta-secretase 1 (Homo sapiens, UniProt P56817). Conditions: pH 4.5; 22 °C. The method, then:
(§1) Enzyme activity and inhibition were assayed using a fluorescent FAM-[SEVNLDAEFK]-TAMRA substrate. Control reactions with no enzyme were included in each assay. Quantification of substrate cleavage was assessed using an LJL analyst spectrophotometer (485nm excitation, 535nm emission).

The next experiment addresses Cathepsin D (Homo sapiens, UniProt P07339). The method, then: as §1
The next experiment concerns the target T1, Beta-secretase 2 (Homo sapiens, UniProt Q9Y5Z0).
T1 sequence (Q9Y5Z0 whole entry): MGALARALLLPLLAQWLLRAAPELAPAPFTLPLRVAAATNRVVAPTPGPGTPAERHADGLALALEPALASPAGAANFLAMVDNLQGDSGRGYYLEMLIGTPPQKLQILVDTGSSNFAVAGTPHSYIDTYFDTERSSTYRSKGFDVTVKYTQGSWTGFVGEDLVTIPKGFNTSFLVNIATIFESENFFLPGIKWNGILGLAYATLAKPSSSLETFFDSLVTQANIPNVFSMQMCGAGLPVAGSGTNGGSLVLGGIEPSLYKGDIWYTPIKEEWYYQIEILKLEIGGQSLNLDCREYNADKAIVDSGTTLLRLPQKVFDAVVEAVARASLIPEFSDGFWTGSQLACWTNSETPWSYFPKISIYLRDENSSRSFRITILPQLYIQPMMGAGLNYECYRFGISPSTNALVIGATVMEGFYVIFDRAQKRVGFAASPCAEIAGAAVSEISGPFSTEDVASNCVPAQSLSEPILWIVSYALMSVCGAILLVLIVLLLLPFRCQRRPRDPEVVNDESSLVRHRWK
Conditions: pH 4.5; 22 °C. The method, then:
as §1

Beta-secretase 1, sequence (P56817 whole entry): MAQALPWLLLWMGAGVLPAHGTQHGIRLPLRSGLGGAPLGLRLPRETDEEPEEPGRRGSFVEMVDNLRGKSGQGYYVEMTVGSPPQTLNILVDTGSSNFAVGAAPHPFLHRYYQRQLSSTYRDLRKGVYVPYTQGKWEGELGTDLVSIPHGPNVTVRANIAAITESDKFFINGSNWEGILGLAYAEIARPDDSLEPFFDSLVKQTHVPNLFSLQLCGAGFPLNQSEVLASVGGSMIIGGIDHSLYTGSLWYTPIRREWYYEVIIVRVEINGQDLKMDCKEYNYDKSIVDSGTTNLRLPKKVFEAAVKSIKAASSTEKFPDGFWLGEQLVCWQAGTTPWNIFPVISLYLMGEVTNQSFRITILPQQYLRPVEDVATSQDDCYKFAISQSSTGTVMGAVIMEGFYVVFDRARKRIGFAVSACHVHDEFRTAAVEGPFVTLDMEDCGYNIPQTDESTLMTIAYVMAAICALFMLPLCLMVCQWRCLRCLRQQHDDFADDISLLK
Cathepsin D, sequence (P07339 65-162 limits assumed): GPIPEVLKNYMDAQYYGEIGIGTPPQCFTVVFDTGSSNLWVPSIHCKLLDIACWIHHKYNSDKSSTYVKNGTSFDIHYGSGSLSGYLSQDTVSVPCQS
Cathepsin D, sequence (P07339 169-412 limits assumed): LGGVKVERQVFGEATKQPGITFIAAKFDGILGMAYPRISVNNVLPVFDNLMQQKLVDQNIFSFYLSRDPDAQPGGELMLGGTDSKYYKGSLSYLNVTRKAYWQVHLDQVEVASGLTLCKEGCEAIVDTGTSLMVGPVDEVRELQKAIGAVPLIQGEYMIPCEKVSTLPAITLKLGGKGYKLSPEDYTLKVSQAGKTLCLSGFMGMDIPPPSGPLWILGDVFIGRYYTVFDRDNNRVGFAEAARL

On to `CCNc1cc(C(=O)N[C@@H](Cc2ccccc2)[C@H](O)CNC)cc(N2CCCCS2(=O)=O)c1` [3-(1,1-dioxo-1,2-thiazinan-2-yl)-5-(ethylamino)-N-[(2S,3R)-3-hydroxy-4-(methylamino)-1-phenylbutan-2-yl]benzamide], for which the IC50 against Beta-secretase 1 is 140 nM; at Cathepsin D it was over 100000 nM.

On to `CCc1cn2c3c(cc(C(=O)N[C@@H](Cc4ccccc4)[C@H](O)CNC4CCCCC4)cc13)N(C)S(=O)(=O)CC2` [BMCL193669 Compound 26], for which the results for the IC50 on Beta-secretase 1, at Beta-secretase 2 and against Cathepsin D were 9 nM, 210 nM and 660 nM, respectively.

For the compound `CCNc1cc(C(=O)N[C@@H](Cc2ccccc2)[C@H](O)CNC2CCCCC2)cc(N2CCCCS2(=O)=O)c1` [N-[(2S,3R)-4-(cyclohexylamino)-3-hydroxy-1-phenylbutan-2-yl]-3-(1,1-dioxo-1,2-thiazinan-2-yl)-5-(ethylamino)benzamide], the IC50 is 69 nM against Beta-secretase 1, 4370 nM against Beta-secretase 2 and 2340 nM on Cathepsin D.

Take `CCNc1cc(C(=O)N[C@@H](Cc2ccccc2)[C@H](O)CNC(C)(C)CCCC(C)C)cc(N2CCCCS2(=O)=O)c1` [N-[(2S,3R)-4-[(2,6-dimethylheptan-2-yl)amino]-3-hydroxy-1-phenylbutan-2-yl]-3-(1,1-dioxo-1,2-thiazinan-2-yl)-5-(ethylamino)benzamide]: the IC50 against Beta-secretase 1 was found to be 30 nM; on Beta-secretase 2, 7940 nM; at Cathepsin D it was 5250 nM.

For the compound `CCc1cn2c3c(cc(C(=O)N[C@@H](Cc4ccccc4)[C@H](O)CNC(C)(C)CCCC(C)C)cc13)N(C)S(=O)(=O)CC2` [N-[(2S,3R)-4-[(2,6-dimethylheptan-2-yl)amino]-3-hydroxy-1-phenylbutan-2-yl]-3-ethyl-9-methyl-10,10-dioxo-10-thia-1,9-diazatricyclo[6.4.1.0^{4,13}]trideca-2,4(13),5,7-tetraene-6-carboxamide], the IC50 was 5 nM at Beta-secretase 1, 114 nM against Beta-secretase 2 and 1000 nM against Cathepsin D.

The IC50 is the concentration needed to halve the response being measured. Read a high IC50 as weaker potency.
